{"source": "patent US8168232B2", "about": "“Formulations and methods of using nitric oxide mimetics in cancer treatment” (priority 2000, dated 2012)", "key": {"[1]": {"tested_on": "soluble guanylyl cyclase (sGC) / cellular cGMP", "assay": "cGMP ELISA (sGC activity) in MDA-MB-231 cells", "assay_type": "cell-based, human", "experimental": "The effects of hypoxia and NO-mimetic treatment on sGC levels were determined using Western Blot analysis. To determine sGC activity, cGMP levels were measured. Briefly, cells were extracted over ice in 1 mL of 6% trichloroacetic acid (BDH Laboratory Supplies, Poole, England). The homogenate was then centrifuged at 13,000 g for 10 min. The supernatant fraction was removed and extracted five times with 2 mL of water-saturated diethyl ether (BDH). The cGMP contained in this fraction was subsequently acetylated and quantitated using an enzyme-linked immuno-sorbent assay (ELISA) kit (STI—Signal Transduction Products, San Clemente, Calif.).\nTo determine the effect of hypoxia on cGMP levels, MDA-MB-231 breast carcinoma cells were incubated in 0.5% O2 for 6 hours in the presence of IBMX (500 μM)."}, "[2]": {"tested_on": "prostate specific antigen (PSA)", "assay": "PSA levels in prostate cancer patients on low dose transdermal GTN", "assay_type": "in vivo, human", "experimental": "Patients with prostatic adenocarcinoma were selected for this study because the progression of this type of cancer correlates well with the plasma levels of prostate-specific antigen (PSA). Thus, the outcome of low dose NO mimetic therapy can be easily assessed by measuring PSA levels. […] Plasma PSA levels were measured via a commercially available immunoassay kit such as Immuno 1 (Bayer Corporation).\nMethods: Patients with a previous history of prostatectomy that have experienced biochemical failure as per the ASTRO criteria (three successive rises in PSA), PSA<10 (units), stable with sub-clinical disease were included in the study after signing an informed consent. All patients were placed on treatment with continuous low dose transdermal nitroglycerin (˜0.03 mg/hr, 24 hours a day). Subjects returned to the study centre for monthly PSA measurements. Subjects were withdrawn from the study if there was evidence of disease progression or other intervening medical events."}, "[3]": {"tested_on": "MDA-MB-231 breast carcinoma spheroids", "assay": "Clonogenic survival of MDA-MB-231 spheroids after doxorubicin", "assay_type": "cell-based, human", "experimental": "Following initial cell plating, spheroids formed for 24, 48, 72, 96 or 120 h. At each time point, spheroids were exposed to 200 μM of doxorubicin, then disaggregated and plated for assessment of colony formation (survival).\nSpheroids were allowed to form for 72 h. DETA/NO was applied for the final 24 h of spheroid formation. Spheroids were then exposed to doxorubicin for 1 h, prior to disaggregation and plating for assessment of survival by clonogenic assay.\nUsing human MDA-MB-231 breast carcinoma cells in clonogenic assays, survival was determined following doxorubicin exposure and NO mimetic administration to both monolayer and spheroid cultures."}, "[4]": {"tested_on": "metalloproteinase (gelatinase)", "assay": "Zymography of metalloproteinase (gelatinase) secretion by breast cancer cells", "assay_type": "cell-based, human", "conditions": "10^−11 M GTN, 10^−12 M SNP", "experimental": "The cells were cultured using a serum-free medium (EX-CELL 300). Following incubation, the medium was extracted and centrifuged at 5,000 RPM for 5 minutes. The supernatant was subsequently collected and stored at −80° C. until further use. SDS-polyacrylamide gels were prepared in accordance with well-known procedures. For the analysis of metalloproteinase secretion, the gel contained 0.1% w/v gelatin, and for the analysis of plasminogen activator secretion, the gel was supplemented with 0.1% w/v casein as well as plasminogen (50 μg/mL). The serum-free conditioned medium was then combined with a nonreducing sample loading buffer (0.5 M Tris, 10% SDS, 1% Bromophenol Blue in 2 mL glycerol) in a ratio of 4:1 and was not boiled. Following electrophoresis, the gels underwent two 15 minute washes with 2.5% Triton X-100. This step removed the SDS. After the washes with H2O, the gels were incubated overnight at 37° C. in a solution containing Tris-HCl (pH 7.0) and CaCl2 (5 mM). The gels were stained with 0.4% Coomassie Brilliant Blue R-250 in 40% methanol/10% glacial acetic acid/50% distilled water for approximately 1 hour, and then destained for about 2 hours in 30% methanol/10% glacial acetic acid/60% distilled water. […]"}, "[5]": {"tested_on": "Bl6F10 metastatic melanoma cells", "assay": "In vivo experimental metastasis (lung colonization) model", "parameters": "species or system C57BL6 mice", "experimental": "C57BL6 mice were injected i.v. (tail vein) with a bolus of 5×10^4-10^5 Bl6F10 metastatic melanoma cells. Immediately after the tail vein injection, mice were randomly divided into groups of 15 and mice in each group were placed in plexiglass chambers (approximately 3 L) which were continuously flushed with gas mixtures of 20% O2:balance N2 and 10% O2:balance N2, respectively. […] After a 24 hour exposure to an atmosphere of either 20% O2 or 10% O2, mice were removed from the chambers and placed in regular cages kept at room air. Thirteen days later, mice were sacrificed by cervical dislocation, and lungs were removed and fixed in Bouin's fixative (Sigma). Metastatic nodules (many of which appeared black due to the presence of melanin) on the surface of the lungs were counted visually under a dissecting microscope. Data were expressed as the number of lung nodules per 10^4 cells injected and were analyzed using statistical tests for non-parametric values.\nCells were then removed from plates with trypsin and 5×10^4 cells were injected i.v. (tail vein) into C57BL6 female mice. Some of the cells treated in vitro were plated onto tissue culture dishes to determine colony-forming ability using the protocol described below in the Section I.J.\nFollowing harvesting from culture plates, 5×10^4 cells were injected intravenously (tail vein injections) into 5-7 week old C57Bl/6 female mice. Cells were also plated in tissue culture plates to determine the effect of culture conditions on in vitro colony forming ability. Fourteen days after intravenous inoculation, mice were sacrificed and their lungs were removed and fixed in Bouin's fixative. Both melanotic and amelanotic metastatic colonies were counted under a dissecting microscope. Data were expressed as the number of lung nodules per 5×10^4 viable cells injected (as determined by in vitro colony-forming ability) and were analyzed using statistical tests for non-parametric values."}}}
{"smiles": "O=[N+]([O-])OCC(CO[N+](=O)[O-])O[N+](=O)[O-]", "note": "[GTN, glyceryl trinitrate]", "values": [{"measurement": "effect on hypoxic reduction of sGC activity (cGMP ELISA)", "setting": "[1]; 0.5% O2, 2 hours, GTN (10^−10 M, 10^−6 M)", "value": "significantly prevented"}, {"measurement": "effect of hypoxia on accumulated cGMP levels", "setting": "[1]; GTN 1 μM co-incubation, 0.5% O2 6 hours, IBMX 500 μM", "value": "prevented"}, {"measurement": "effect on hypoxic reduction in cGMP levels", "setting": "[1]; GTN (1 mM) as printed, 6 hrs 0.5% O2, IBMX", "value": "completely prevented"}, {"measurement": "plasma PSA levels", "setting": "[2]; GTN 0.033 mg/hour transdermal patches, recurrent prostatic adenocarcinoma, two patients, within two months", "value": "sharp decline"}, {"measurement": "PSA velocity, first two treatment episodes", "setting": "[2]; one patient, prostate intact, on anti-androgen therapy, GTN 0.03 mg/hour, about one month each", "value": "reduction of PSA velocity"}, {"measurement": "PSA levels, third treatment episode", "setting": "[2]; one patient, prostate intact, GTN 0.03 mg/hour, about one month", "value": "decrease in PSA levels"}, {"measurement": "time to PSA decrease with combined radiation therapy", "setting": "[2]; one patient, chronic transdermal GTN 0.03 mg/hour, radiation alone expected average twelve months", "value": "within three months"}, {"measurement": "mean PSA velocity on therapy", "setting": "[2]; transdermal ~0.03 mg/hr 24 hours a day, 5 or more months of therapy, decreased from 14%/month, post-prostatectomy biochemical failure", "value": 5.4, "unit": "%/month"}, {"measurement": "drug related adverse events", "setting": "[2]; transdermal ~0.03 mg/hr, 24 hours a day", "value": "No patients experienced drug related adverse events"}, {"measurement": "survival of control (doxorubicin-untreated) cells", "setting": "[3]; DETA 0.1 mM and 2 μM, GTN 0.1 nM and 1 μM", "value": "did not affect the survival"}, {"measurement": "attenuation of resistance to 200 μM doxorubicin associated with 3D culture", "setting": "[3]; spheroids", "value": 30, "unit": "%"}, {"measurement": "gelatinases secreted vs untreated hypoxic cells", "setting": "[4]", "value": "decrease in gelatinases secreted"}, {"measurement": "decrease of hypoxia-stimulated lung nodule formation", "setting": "[5]; cells pre-treated in vitro 12 h, 1% O2, 2×10^−11 M GTN", "value": 85, "unit": "%"}, {"measurement": "reduction of extent of metastasis", "setting": "[5]; cells pre-treated in vitro 12 h, 20% oxygen, 2×10^−11 M GTN", "value": "more than 60%"}, {"measurement": "attenuation of L-NMMA metastatic response", "setting": "[5]; concomitant GTN (10^−10 M) and L-NMMA", "value": 60, "unit": "%"}]}
